# Data taken from ChEMBL document CHEMBL1201862, “PubChem BioAssay data set” (2004).
# Counter-ions that a name gives are not always drawn.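 Test compounds were applied to cells in 96-well plates for 48 hours at 5 doses. GI50: concentration for 50% inhibition of growth.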 Calls of active or inactive are those of the source. Rule as the data show it: active = GI50 up to about 1.1 µM and inactive = higher. Residues, ends and D or L forms follow the SMILES beside them. *: point of attachment. Boc = CC(C)(C)OC(=O)*
# Key:
# Test in all cases: NCI-60 cell line screen, 48 h
# [1] = tested on: Hs-578T
# [2] = tested on: BT-549
# [3] = tested on: DMS-114
# [4] = tested on: LXFL 529
# [5] = tested on: XF498
# [6] = tested on: M19-MEL
# [7] = tested on: DMS-273
# [8] = tested on: HOP-18
# [9] = tested on: RXF 631
Compound,GI50 [1],GI50 [2],further results
Cc1cc(O)nc2cc3oc4ccccc4c3cc12,0.562 µM (active),> 100 µM (inactive),
O=C1NC(=S)N/C1=C\c1ccc(Br)s1,34 µM (inactive),40.4 µM (inactive),
C#CCN(N=O)C(=O)NC(CCCNC(=O)OCc1ccccc1)C(=O)OCc1ccccc1 (configuration not stated),,,GI50 [3]: 67.3 µM (inactive); GI50 [4]: 72.9 µM (inactive); GI50 [5]: 18 µM (inactive); GI50 [6]: > 100 µM (inactive); GI50 [7]: > 100 µM (inactive)
O=[N+]([O-])c1ccc(N2N=C(c3ccc4ccccc4c3O)CC2c2ccc(Cl)cc2)c([N+](=O)[O-])c1 (configuration not stated),37.9 µM (inactive),> 100 µM (inactive),
CSC1CC2C(CC1(C)SC)C2(C)C (configuration not stated),,,GI50 [4]: > 100 µM (inactive); GI50 [5]: 19.7 µM (inactive); GI50 [6]: 37.2 µM (inactive); GI50 [7]: 45.4 µM (inactive)
O=C(NNC(=O)c1ccccc1Cl)c1ccccc1O,41.9 µM (inactive),> 100 µM (inactive),
COc1cc2oc(-c3ccc4c(c3)OCO4)c(OC)c(=O)c2c(OC)c1OC,52.2 µM (inactive),38.7 µM (inactive),
CC1C(c2ccccc2)=CCON1c1ccccc1 (configuration not stated),,,GI50 [3]: > 100 µM (inactive); GI50 [4]: > 100 µM (inactive); GI50 [5]: > 100 µM (inactive); GI50 [6]: > 100 µM (inactive)
S=C(NCc1ccccc1)c1nc[nH]c1C(=S)NCc1ccccc1,,13.3 µM (inactive),
CN(C)Cc1cc(/N=N/c2ccc(Cl)cc2)ccc1O,15 µM (inactive),10.7 µM (inactive),
Cc1ccc(/C=N/Nc2nncc3ccccc23)s1,35.6 µM (inactive),> 55.8 µM (inactive),
CC(=O)O[C@H]1CCC2[C@@H]3CCC4=C(O)c5nocc5C[C@]4(C)C3CC[C@@]21C (some centres not stated),,,GI50 [3]: > 100 µM (inactive); GI50 [4]: > 100 µM (inactive); GI50 [8]: > 100 µM (inactive); GI50 [5]: > 100 µM (inactive); GI50 [6]: > 100 µM (inactive); GI50 [7]: > 100 µM (inactive)
COC(=O)c1c2c(cc3c1CC1(Cc4cc5c(cc4C1)CCC5)C3)CCC2,> 100 µM (inactive),,
Cc1nnc2sc(Cl)nn12,39.5 µM (inactive),17.7 µM (inactive),
CCCC(=O)c1c(NOC2OC(COC(C)=O)C(OC(C)=O)C(OC(C)=O)C2OC(C)=O)nc(OC)n(C)c1=O (configuration not stated),,,GI50 [3]: > 100 µM (inactive); GI50 [4]: > 100 µM (inactive); GI50 [5]: > 100 µM (inactive); GI50 [6]: > 100 µM (inactive); GI50 [7]: > 100 µM (inactive)
CCCCN(CC)CC(C(C)=O)c1c(O)c2ccccc2oc1=O (configuration not stated),,,GI50 [3]: > 100 µM (inactive); GI50 [4]: > 100 µM (inactive); GI50 [8]: > 100 µM (inactive); GI50 [5]: > 100 µM (inactive); GI50 [6]: > 100 µM (inactive); GI50 [7]: > 100 µM (inactive)
COc1cc2c3c([nH]c2c(OC)c1OC)CCN(Cc1ccccc1)C3,32.4 µM (inactive),,
CC(=O)c1c2c(cc3c1CC1(Cc4cc5c(cc4C1)CCCC5)C3)CCCC2,> 100 µM (inactive),,
CC(Cc1cccc2c1Nc1ccccc1S2)N(C)CCO (configuration not stated),> 100 µM (inactive),> 100 µM (inactive),
CC(=O)OC1=C(c2ccccc2)S(=O)(=O)c2ccccc21,> 100 µM (inactive),> 100 µM (inactive),
O=C1NC(=S)NC(=O)C1C(c1ccc(Cl)cc1)C1C(=O)NC(=S)NC1=O.c1ccncc1,,> 100 µM (inactive),
C[C@]12CC[C@H](O)CC1=CC[C@@H]1C2CC[C@]2(C)Nc3c(cnn3-c3ccc(F)cc3)CC12 (some centres not stated),,14.4 µM (inactive),

Compound,GI50 [1],GI50 [2],further results
Cc1ccc(S(=O)(=O)OCC23CCC(C4CC42)C2CC23)cc1 (configuration not stated),,,GI50 [9]: > 100 µM (inactive); GI50 [3]: 37.5 µM (inactive); GI50 [4]: 65 µM (inactive); GI50 [8]: > 100 µM (inactive); GI50 [6]: 60.7 µM (inactive); GI50 [7]: 68.2 µM (inactive)
CCOc1cc(NC(C)=O)ccc1C(=O)NNC(=O)c1ccccc1OC(C)=O,> 52 µM (inactive),19.5 µM (inactive),
N#Cc1ncn(CCO)c1N,> 100 µM (inactive),> 100 µM (inactive),
COc1cc(/C=C2\NC(=S)C3Cc4c(OC)c(C)c(OC)c(OC)c4C2N3C)c(OC)c(C)c1OC (configuration not stated),,,GI50 [3]: 27.5 µM (inactive); GI50 [4]: 28.8 µM (inactive); GI50 [8]: 27.8 µM (inactive); GI50 [6]: 45.6 µM (inactive); GI50 [7]: 46.9 µM (inactive)
Cc1ccc(NCC(=O)N2CC(=O)Nc3ccccc32)c(C)c1,,,GI50 [4]: > 100 µM (inactive); GI50 [8]: > 100 µM (inactive); GI50 [5]: > 100 µM (inactive); GI50 [6]: > 100 µM (inactive); GI50 [7]: > 100 µM (inactive)
O=C(O)C1C2C=CC(C2)C1c1ccccc1 (configuration not stated),> 100 µM (inactive),,
O=C(O)C(CS)Nc1c2ccccc2[n+]([O-])c2ccccc12 (configuration not stated),,,GI50 [9]: > 100 µM (inactive); GI50 [3]: > 100 µM (inactive); GI50 [4]: 53.7 µM (inactive); GI50 [8]: > 100 µM (inactive); GI50 [6]: > 100 µM (inactive); GI50 [7]: > 100 µM (inactive)
COC1(OC)N=C(N)C2(C#N)C(C)CC(=O)N(N(C)C)C12C#N (configuration not stated),> 100 µM (inactive),,
O=C1CCSc2c(cnc3ccccc23)N1,31.3 µM (inactive),27.4 µM (inactive),
NC(C(F)(F)F)(C(F)(F)F)P(=O)(c1ccccc1)c1ccccc1,> 100 µM (inactive),> 100 µM (inactive),
COc1ccc2c(c1)C1Oc3ccccc3CC1CO2 (configuration not stated),34 µM (inactive),52.2 µM (inactive),
Cc1ccccc1/N=N/c1c(-c2ccccc2)nn(C(=O)CC(=O)Nc2cccc(Cl)c2)c1-c1ccccc1,,,GI50 [3]: 14.9 µM (inactive); GI50 [4]: 21.6 µM (inactive); GI50 [8]: 25.7 µM (inactive); GI50 [5]: 28.2 µM (inactive); GI50 [6]: > 10 µM (inactive); GI50 [7]: 20 µM (inactive)
CC(C)(C)OC(=O)NCCCCC(NC(=O)c1ccccc1)C(N)=O (configuration not stated),> 100 µM (inactive),> 100 µM (inactive),
O=C(CSc1nc2ccc(I)cc2c(=O)n1Cc1ccccc1)NNC(=O)c1ccccc1,2.85 µM (inactive),7.31 µM (inactive),
COc1cc2c(c(OC)c1OC)-c1ccc(OC)c(=O)cc1C(NC(=O)CCCCCNc1ccc(N=[N+]=[N-])cc1[N+](=O)[O-])CC2 (configuration not stated),< 0.01 µM (active),,
CN(C)c1ccc(/C=c2/c3ccccc3n3nc4ccccc4c23)cc1,35.6 µM (inactive),13.8 µM (inactive),
Nc1cccc(C2CCCc3c2[nH]c2ccccc32)c1 (configuration not stated),16 µM (inactive),18.4 µM (inactive),
COc1cc2c(cc1OC)[C@H]1C(COC(=O)c3ccccc3)CS/C(=N/c3ccccc3)N1CC2 (some centres not stated),,,GI50 [3]: 17.1 µM (inactive); GI50 [4]: 24.4 µM (inactive); GI50 [8]: > 100 µM (inactive); GI50 [5]: > 100 µM (inactive); GI50 [6]: > 100 µM (inactive); GI50 [7]: 74 µM (inactive)
Cn1ccnc1Oc1ccc(Cl)cc1,24.4 µM (inactive),16.9 µM (inactive),
Cc1oc2c(cc(O)c3cc(O)ccc32)c2cccc1-2,> 100 µM (inactive),0.697 µM (active),
O=c1[nH]nc(Cc2ccc(Cl)cc2)n1Nc1ccccc1,47.9 µM (inactive),> 100 µM (inactive),
Cc1ccc(C(=O)N/N=C(\N=N\c2cccc(Cl)c2)c2ccc(N(CCC#N)CCC#N)cc2C)cc1,,> 100 µM (inactive),

Compound,GI50 [1],GI50 [2],further results
[N-]=[N+]=Nc1ccc2c(c1)Sc1ccccc1N2CCCCN1CCN(C(=O)CCNC(=O)Cc2ccc(C(=O)c3ccccc3)cc2)CC1,17.7 µM (inactive),5.06 µM (inactive),
COc1ccc(C(=O)O/N=C2/CCCCC2CN(C)C)cc1 (configuration not stated),,,GI50 [9]: > 100 µM (inactive); GI50 [4]: > 100 µM (inactive); GI50 [8]: > 100 µM (inactive); GI50 [6]: > 100 µM (inactive); GI50 [7]: > 100 µM (inactive)
COc1ccc(C(OCC2OC(n3ccc(NC(=O)c4ccccc4)nc3=O)C(O)C2O)(c2ccccc2)c2ccccc2)cc1 (configuration not stated),2.12 µM (inactive),,
C[C@@H]1CCC2C(C)(C)C(/C=C\C=O)C3(C)OC213 (some centres not stated),21.5 µM (inactive),34.8 µM (inactive),
CCOC(=O)c1nnsc1N/N=C\c1ccc([N+](=O)[O-])cc1,> 100 µM (inactive),> 100 µM (inactive),
COc1ccccc1/C=N/C12CC3CC(CC(C3)C1)C2,,,GI50 [3]: > 10 µM (inactive); GI50 [6]: > 100 µM (inactive); GI50 [7]: > 100 µM (inactive)
COc1ccc([S+]([O-])Cc2cc(OC)c(OC)c(OC)c2)cc1 (configuration not stated),> 100 µM (inactive),46.7 µM (inactive),
Nc1nc(O)nc2snnc12,> 54.8 µM (inactive),3.54 µM (inactive),
CCN1CCCC(Nc2cc(C)nc(NC(=N)Nc3ccc(Cl)c(Cl)c3)n2)C1 (configuration not stated),2.02 µM (inactive),1.64 µM (inactive),
C=C1c2nc3ccccc3n2C=C(c2ccccc2)N1c1ccc(OC)cc1,,13.5 µM (inactive),
COc1cc2c(cc1OC)C(=O)/C(=C/c1ccc(Cl)cc1)CC2,> 10 µM (inactive),> 10 µM (inactive),
O=C1CC(Nc2ccccc2)c2c(Cl)sc(Cl)c21 (configuration not stated),2.42 µM (inactive),2.22 µM (inactive),
COC(=O)C1=C(C(=O)OC)SC(=C2c3ccsc3-c3sccc32)S1,14.9 µM (inactive),29.4 µM (inactive),
COC(=O)/C=C\C(C#N)(C#N)/N=C/c1ccccc1,12.2 µM (inactive),5.2 µM (inactive),
C[C@@H]1CC[C@@]2(C)OC(c3ccccc3)[C@H](CO)N2C1=O (some centres not stated),,,GI50 [3]: > 100 µM (inactive); GI50 [8]: > 100 µM (inactive); GI50 [5]: > 100 µM (inactive); GI50 [6]: > 100 µM (inactive); GI50 [7]: > 100 µM (inactive)
Cc1c2cccc-2c(N(C)C)cc2c1[nH]c1ccccc12,3.57 µM (inactive),2.6 µM (inactive),
CCOC(=O)C(Cc1cn(S(=O)(=O)c2ccccc2)c2ccccc12)(NC(C)=O)C(=O)OCC,,,GI50 [3]: 23.9 µM (inactive); GI50 [4]: 27.7 µM (inactive); GI50 [5]: 29.7 µM (inactive); GI50 [6]: 40.7 µM (inactive); GI50 [7]: 35 µM (inactive)
CN(C)Cc1cc(/C=C/C(=O)c2ccc(Br)cc2)cc(CN(C)C)c1O,,15.1 µM (inactive),
CCN1/C(=C/c2ccc3ccccc3[n+]2CC)C=Cc2ccccc21,1.01 µM (active),1.69 µM (inactive),
COC(=O)C(Cc1c[nH]c2ccccc12)NC(=O)C(Cc1c[nH]c2ccccc12)NC(=O)C(Cc1c[nH]c2ccccc12)NC(=O)C(Cc1c[nH]c2ccccc12)NC(=O)C(Cc1c[nH]c2ccccc12)NC(=O)C(Cc1c[nH]c2ccccc12)NC(=O)OC(C)(C)C (configuration not stated) (Boc-WWWWWW-OMe; configuration not given here),,44 µM (inactive),
COc1cc2cc3c4cc(OC)c(OC)cc4cc[n+]3c(C)c2cc1OC [CORALYNE],24.9 µM (inactive),10.8 µM (inactive),
CN[C@@H](C)[C@@H](O)c1ccccc1 [PSEUDOEPHEDRINE HYDROCHLORIDE],> 100 µM (inactive),,
